# Test system: retinal precursor cells
# Test: Sphere passaging and high-throughput drug screening: proliferation of retinal precursor cells within one week
# Format: cell-based, mammalian
# Conditions: for Cell proliferation within one week [%]: retinal precursor cells grown one week with compound in 0.1% DMSO, control without compound = 100; for increase of cell proliferation within one week: increase over control, retinal precursor cells
# Method: Kynurenic Acid (0.2 mg/mL), trypsin (1.33 mg/mL), and hyaluronidase (0.67 mg/mL) were weighed out and dissolved in high magnesium/low calcium artificial cerebral spinal fluid (aCSF) at 37° C. Fibroblast growth factor 2 (FGF2; 10 ng/mL) and heparin (2 μg/mL) were added to 100 mL of serum-free media (SFM). Ovomucoid trypsin inhibitor (1 mg/mL) was dissolved in warm SFM and sterile filtered ([…]).
# A dissecting microscope, cold light source, and sterile surgical instruments were set up inside of a sterile biological safety cabinet (BSC). Mammalian eyes were enucleated and placed in a petri dish containing cold, sterile aCSF. Under the dissecting microscope, hair, connective tissue, and the dorsal and ventral oblique muscles were cleared from the scleral/corneal border with two sets of forceps. Next, curved or angled micro-dissecting scissors were used to cleave any remaining extraocular muscle tissue, the optic nerve, and cut the eyeball into symmetrical halves; beginning and finishing the cut from the hole left by the optic nerve. Using two sets of forceps to grasp the cornea, the two eye halves were peeled apart. The lens, optic nerve, and vitreous were separated from the eye shells and the eye shells were transferred into a new petri dish (also containing cold, sterile aCSF). To isolate the ciliary epithelium (CE), eye shells were oriented with the cornea on the right and retinal pigmented epithelium (RPE) on the left. A pair of straight forceps were used to pin down the eye shell on the RPE side while a scalpel blade was inserted between the CE and the iris, using pressure to slice the iris/cornea side off from the rest of the shell. Next, the scalpel was run along the border between the CE and the RPE to obtain the CE isolated as a thin strip of tissue. The CE strips were then transferred to a 35 mm dish containing 2 mL of dispase solution (Sigma; T1005) and incubated for 10 minutes at 37° C. Next, the strips were transferred from dispase into a 35 mm dish containing 2 mL of sterile filtered kynurenic acid, trypsin and hyaluronidase solution and incubated at 37° C. for 10 minutes. After incubation, the dish was returned to the dissecting scope, and the CE strips were pinned down with straight, non-serrated forceps, while non-serrated curved forceps were used to scrape the CE off from the underlying sclera. The bare scleral strips were then discarded, such that only the CE cells remained in the enzyme solution. Using a fire-polished, cotton-plugged glass pipette, the cells and enzyme solution were transferred to a 15 mL tube and triturated approximately 45 times to break apart the tissue. The 15 mL tube/cell suspension was centrifuged for 5 minutes at 1500 rpm. The supernatant was gently aspirated from the resulting pellet using a fire-polished, cotton-plugged glass pipette and 2 mL of trypsin inhibitor solution was added to the pellet. Using a small borehole, fire-polished, cotton-plugged glass pipette, the sample was triturated approximately 45 times until it was a single-cell suspension. The 15 mL tube/cell suspension was centrifuged for 5 minutes at 1500 rpm. The supernatant was gently aspirated from the resulting pellet and 1-2 mL of SFM with FGF2 and heparin (plating media) was added. The cells and media were mixed to ensure a uniform cell suspension and a 10 uL sample was taken and cell density was determined. The cells were then seeded and cultured at 10c/μL in culture-treated plates or flasks. After one week, roughly 1 in 500 cells proliferated to form free-floating, clonal spheres greater than 80 μm in diameter.
# Human-derived spheres were passaged using the kynurenic acid, trypsin, hyaluronidase enzyme solution with the addition of collagenase I (0.5 mg/mL), collagenase II (0.5 mg/mL) and elastase (0.1 mg/mL). Mouse-derived spheres were passaged using hyaluronidase (0.67 mg/mL), collagenase I (0.5 mg/mL), and collagenase II (0.5 mg/mL) dissolved in Accustase solution (Sigma; SCR005). […]
# [1] = results table after the methods
SMILES,Cell proliferation within one week [%] [1] [%],Cell proliferation within one week [%] (concentration not given),increase of cell proliferation within one week [%]
"O=C(Cc1cccc(OC(F)F)c1)Nc1ccc(-c2cnco2)c(F)c1 [Compound E1027, 2-(3-(difluoromethoxy)phenyl)-N-(3-fluoro-4-(oxazol-5-yl)phenyl)acetamide]",120,120,–
"O=C(Cc1ccccc1OC(F)F)Nc1ccc(-c2cnco2)c(F)c1 [Compound E1028, 2-(2-(difluoromethoxy)phenyl)-N-(3-fluoro-4-(oxazol-5-yl)phenyl)acetamide]",119,119,–
"O=C(Cc1cc(F)ccc1Cl)Nc1ccc(-c2cnco2)c(F)c1 [Compound E1030, 2-(2-chloro-5-fluorophenyl)-N-(3-fluoro-4-(oxazol-5-yl)phenyl)acetamide]",133,133,–
"O=C(Cc1ccccc1)Nc1ccc(-c2cnco2)c(F)c1 [Compound E1031, N-(3-fluoro-4-(oxazol-5-yl)phenyl)-2-phenylacetamide]",123,123,–
"O=C(Cc1ccccc1Cl)Nc1ccc(-c2cnco2)c(F)c1 [Compound E1032, 2-(2-chlorophenyl)-N-(3-fluoro-4-(oxazol-5-yl)phenyl)acetamide]",137,137,–
"O=C(Cc1ccc(Cl)cc1)Nc1ccc(-c2cnco2)c(F)c1 [Compound E1039, 2-(4-chlorophenyl)-N-(3-fluoro-4-(oxazol-5-yl)phenyl)acetamide]",107,107,–
"COc1cccc(CC(=O)Nc2ccc(-c3cnco3)c(F)c2)c1 [Compound E1042, N-(3-fluoro-4-(oxazol-5-yl)phenyl)-2-(3-methoxyphenyl)acetamide]",127,127,–
"O=C(Cc1ccc(F)cc1F)Nc1ccc(-c2cnco2)c(F)c1 [Compound E1045, 2-(2,4-difluorophenyl)-N-(3-fluoro-4-(oxazol-5-yl)phenyl)acetamide]",140,140,–
"O=C(Cc1cccc(C(F)(F)F)c1)Nc1ccc(-c2cnco2)c(F)c1 [Compound E1048, N-(3-fluoro-4-(oxazol-5-yl)phenyl)-2-(3-(trifluoromethyl)phenyl)acetamide]",105,105,–
"O=C(Cc1ccccc1C(F)(F)F)Nc1ccc(-c2cnco2)c(F)c1 [Compound E1051, N-(3-fluoro-4-(oxazol-5-yl)phenyl)-2-(2-(trifluoromethyl)phenyl)acetamide]",118,118,–
"O=C(Cc1ccccc1Cl)Nc1ccc(-c2ccncc2)cc1 [Compound E1060, 2-(2-chlorophenyl)-N-(4-(pyridin-4-yl)phenyl)acetamide]",144,–,44
"COc1cc(NC(=O)Cc2cc(F)ccc2Cl)ccc1-c1ccncc1 [Compound E1062, 2-(2-chloro-5-fluorophenyl)-N-(3-methoxy-4-(pyridin-4-yl)phenyl)acetamide]",134,–,–
"COc1cc(NC(=O)Cc2ccccc2)ccc1-c1ccncc1 [Compound E1063, N-(3-methoxy-4-(pyridin-4-yl)phenyl)-2-phenylacetamide]",130,–,–
"COc1cc(NC(=O)Cc2cccc(OC(F)F)c2)ccc1-c1ccncc1 [Compound E1066, 2-(3-(difluoromethoxy)phenyl)-N-(3-methoxy-4-(pyridin-4-yl)phenyl)acetamide]",108,–,–
"COc1ccccc1CC(=O)Nc1ccc(-c2ccncc2)c(OC)c1 [Compound E1068, N-(3-methoxy-4-(pyridin-4-yl)phenyl)-2-(2-methoxyphenyl)acetamide]",108,–,–
"COc1cc(NC(=O)Cc2ccc(F)cc2F)ccc1-c1ccncc1 [Compound E1069, 2-(2,4-difluorophenyl)-N-(3-methoxy-4-(pyridin-4-yl)phenyl) acetamide]",106,–,–
"COc1cc(NC(=O)Cc2cccc(C(F)(F)F)c2)ccc1-c1ccncc1 [Compound E1070, N-(3-methoxy-4-(pyridin-4-yl)phenyl)-2-(3-(trifluoromethyl)phenyl)acetamide]",106,–,–
"COc1cc(NC(=O)Cc2ccccc2C(F)(F)F)ccc1-c1ccncc1 [Compound E1071, N-(3-methoxy-4-(pyridin-4-yl)phenyl)-2-(2-(trifluoromethyl)phenyl)acetamide]",113,–,–
"COc1cccc(CC(=O)Nc2ccc(-c3ccncc3)c(OC)c2)c1 [Compound E1072, N-(3-methoxy-4-(pyridin-4-yl)phenyl)-2-(3-methoxyphenyl)acetamide]",140,–,40
COc1cc(NC(=O)Cc2ccccc2OC(F)F)ccc1-c1ccncc1 [Compound E1073],121,–,–
"COc1cccc(CC(=O)Nc2ccc(-c3ccncc3)cc2)c1 [Compound E1078, 2-(3-methoxyphenyl)-N-(4-(pyridin-4-yl)phenyl)acetamide]",136,–,–

# — patent publication US10752593B2, “Compounds for use as therapeutically active substances in the treatment of retinal diseases” (ENDOGENA THERAPEUTICS, INC., priority 2018, dated 2020)
